One molecule from US20030004214A1, “Use of rofleponide in the treatment of irritable bowel syndrome (ibs)” (priority 2000, published 2003) can be followed below.

Series [1] in a line: treatment of irritable bowel syndrome (IBS). Particulars: in vivo. The procedure: For testing the effect of rofleponide, its esters and salts in post-infectious irritable bowel syndrome the intestinal neuromuscular dysfunction after acute nematode infection in mice are measured in accordance with the method described in Gasteroenterology 1997, vol. 133, p.1224-1232.
The subject of another series is cytochrome P450 enzymes. The series can be described thus: first pass metabolism / inactivation in the intestinal hepatic region. Particulars: inactivation by cytochrome P450 enzymes in the intestinal hepatic region. The format is in vivo.
A short description of series [2]: water solubility for dissolution distribution in intestinal fluids. The format is physicochemical.
A short description of a further series: oral bioavailability. The series is classed as in vivo.
Series [3] concerns the target T1, glucocorticosteroid receptors (Homo sapiens, UniProt P04150).
T1 sequence (P04150 1-777): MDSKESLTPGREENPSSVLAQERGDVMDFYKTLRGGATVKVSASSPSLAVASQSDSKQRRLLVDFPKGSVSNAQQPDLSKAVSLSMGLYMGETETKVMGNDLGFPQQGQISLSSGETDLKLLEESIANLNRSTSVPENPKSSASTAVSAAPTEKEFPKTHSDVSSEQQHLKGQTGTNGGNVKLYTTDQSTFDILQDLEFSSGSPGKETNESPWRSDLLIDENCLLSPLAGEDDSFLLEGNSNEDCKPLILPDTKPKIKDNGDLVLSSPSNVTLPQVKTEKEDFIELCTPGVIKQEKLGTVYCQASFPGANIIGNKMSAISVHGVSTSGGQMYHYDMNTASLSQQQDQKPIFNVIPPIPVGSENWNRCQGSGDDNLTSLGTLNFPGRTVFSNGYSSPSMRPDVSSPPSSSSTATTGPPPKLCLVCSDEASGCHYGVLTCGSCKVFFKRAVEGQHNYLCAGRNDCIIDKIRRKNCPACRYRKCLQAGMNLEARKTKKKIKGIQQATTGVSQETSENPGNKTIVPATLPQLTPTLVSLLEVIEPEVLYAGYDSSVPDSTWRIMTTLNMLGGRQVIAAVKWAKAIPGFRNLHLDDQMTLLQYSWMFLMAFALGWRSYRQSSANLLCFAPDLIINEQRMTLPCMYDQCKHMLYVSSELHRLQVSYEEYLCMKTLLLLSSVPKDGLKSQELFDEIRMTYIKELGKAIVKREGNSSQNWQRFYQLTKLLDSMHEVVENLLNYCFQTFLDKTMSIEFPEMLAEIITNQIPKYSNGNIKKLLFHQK
The series can be described thus: affinity for and activity at glucocorticosteroid receptors. Particulars: compared to other very potent topical steroids. The format is binding.

`CCC[C@@H]1O[C@@H]2C[C@H]3[C@@H]4C[C@H](F)C5=CC(=O)CC[C@]5(C)[C@@]4(F)[C@@H](O)C[C@]3(C)[C@]2(C(=O)CO)O1` [rofleponide, (22R)-16-alpha, 17 alpha-butylidenedioxy-6-alpha, 9alpha-difluoro-11beta,21-dihydroxypregn-4-ene-3,20-dione]: the “effect in the treatment of irritable bowel syndrome (IBS)” value in series [1] is “effective”. Moreover, in the series with cytochrome P450 enzymes, the first pass metabolism result was “at least 99%”. In addition, the water solubility entry in series [2] is “sufficient”. In “oral bioavailability”, this molecule returned an oral bioavailability of at most 1%. In series [3], the “affinity for and activity at glucocorticosteroid receptors” value is recorded as “very high”.
